In publication PMC12692291, “Development and In Vitro Evaluation of [^64Cu]Cu-NOTA-TP-PSMA, a Novel Radiotheranostic Agent Against Prostate Cancer” (International Journal of Molecular Sciences, 2025):

Tested on: LNCaP cells
Test: Cellular uptake and internalization in LNCaP cells
Type: cell-based
Protocol: LNCaP cells (1 × 10^5 cells/well) were seeded into 24-well plates and incubated for 72 h. Cells were treated with 1nM [^64Cu]Cu-NOTA-TP-PSMA or control monomers ([^64Cu]Cu-NOTA-TP and [^64Cu]Cu-NOTA-PSMA), each containing 0.1 MBq of radioactivity in RPMI-1640 medium.
Uptake and internalization were assessed at multiple time points (30 min to 24 h). At each timepoint, cells were washed with cold PBS, detached with trypsin, and counted using a hemocytometer. For internalization studies, surface-bound radioactivity was removed using 50 mM glycine-HCl buffer (pH 2.2) for 5 min, followed by additional PBS washes.
To investigate the internalization mechanism, parallel experiments were conducted at 4 °C to evaluate passive versus active uptake. Receptor specificity was assessed via blocking assays using 1 µM ^natCu-NOTA-TP-PSMA (1000-fold excess) co-incubated with 1 nM radiolabeled tracer. Post-incubation, intracellular radioactivity was quantified using a HIDEX gamma counter. All results were normalized to 10^6 cells and expressed as percent counts per minute per million cells (%CPM/10^6 cells).

O=C(O)CC[C@H](NC(=O)N[C@@H](CCCCNC(=O)[C@@H](Cc1ccc2ccccc2c1)NC(=O)C1CCC(CNC(=O)C(CCCCNC(=O)c2cc3[n+]4c(c2)-c2cccc[n+]2[Pt-2]4([Cl])[n+]2ccccc2-3)NC(=O)COCCOCCNC(=O)CN2CCN3CCN(CC2)CC(=O)[O][64Cu][O]C(=O)C3)CC1)C(=O)O)C(=O)O (stereo partly shown) [[^64Cu]Cu-NOTA-TP-PSMA 1]
internalization fold greater in LNCaP than HEK-293 (24 h): approximately 6 fold | uptake fold greater in LNCaP than HEK-293 (24 h): approximately 8 fold | fold decrease of internalization/uptake at 4 °C versus 37 °C (LNCaP): ~ 10 fold | Internalization at 4 °C (LNCaP, 4 °C, 24 h): 3.9 ± 0.5 %CPM/10^6 cells | Internalization (LNCaP, 24 h, 37 °C, 1 nM): 44.9 ± 7.3 %CPM/10^6 cells | Uptake (LNCaP, 24 h, 37 °C, 1 nM): 65.9 ± 8.6 %CPM/10^6 cells | fold decrease of internalization/uptake at 4 °C versus 37 °C (LNCaP, listed as [^64Cu]Cu-NOTA-TP-PSMA): > 10 fold | Uptake (Table S1, LNCaP, 1 h): 16.52 ± 5.38 %ID/10⁶ cells | Uptake blockage (Table S1, LNCaP, 1 h, 1 µM natCu-NOTA-TP-PSMA (1000-fold excess)): 11.06 ± 5.93 %ID/10⁶ cells | Uptake blockage (Table S1, LNCaP, 2 h, 1000-fold excess blocking): 16.36 ± 7.23 %ID/10⁶ cells | Uptake (Table S1, LNCaP, 4 h): 44.61 ± 16.49 %ID/10⁶ cells | Uptake blockage (Table S1, LNCaP, 4 h, 1000-fold excess blocking): 18.70 ± 10.46 %ID/10⁶ cells | Uptake (Table S1, LNCaP, 20 h): 62.88 ± 9.10 %ID/10⁶ cells | Uptake blockage (Table S1, LNCaP, 20 h, 1000-fold excess blocking): 30.68 ± 11.43 %ID/10⁶ cells | Uptake (Table S1, LNCaP, 24 h): 65.87 ± 8.37 %ID/10⁶ cells | Uptake blockage (Table S1, LNCaP, 24 h, 1000-fold excess blocking): 37.00 ± 13.09 %ID/10⁶ cells | Internalization LNCaP (Table S2, 1 h): 11.91 ± 5.75 %ID/10⁶ cells | Uptake LNCaP (Table S2, 1 h): 16.52 ± 5.53 %ID/10⁶ cells | Internalization LNCaP (Table S2, 2 h): 17.07 ± 6.19 %ID/10⁶ cells | Uptake LNCaP (Table S2, 2 h): 28.67 ± 9.74 %ID/10⁶ cells | Internalization LNCaP (Table S2, 4 h): 30.27 ± 8.92 %ID/10⁶ cells | Uptake LNCaP (Table S2, 4 h): 44.61 ± 16.99 %ID/10⁶ cells | Internalization LNCaP (Table S2, 20 h): 42.49 ± 9.41 %ID/10⁶ cells | Uptake LNCaP (Table S2, 20 h): 62.88 ± 9.37 %ID/10⁶ cells | Internalization LNCaP (Table S2, 24 h): 44.94 ± 7.32 %ID/10⁶ cells | Uptake LNCaP (Table S2, 24 h): 65.87 ± 8.61 %ID/10⁶ cells | fold higher internalization compared to [64Cu]Cu-NOTA-PSMA (cancer cells (LNCaP), 24 h): 2.7 fold | fold higher internalization compared to [64Cu]Cu-NOTA-TP (cancer cells (LNCaP), 24 h): 1.2 fold
